In patent US20230225990A1, “DIMETHYL SULFONE FOR TREATMENT OF CHRONICALLY HEAT STRESSED POULTRY” (Evonik Operations GmbH, priority 2020, published 2023):
Marks after values point to notes of the source that are not given here.

Tested on: male broilers subjected to chronic cyclic heat stress
Experiment: Animal performance (BW, ADG, ADFI, F:G, mortality, EPEF) with chronic cyclic heat stress in the finisher phase
Assay type: in vivo, broiler chickens (Ross 308)
Details: for FIhs (percentage of total feed intake consumed during hours of heat stress): 6 h heat stress per day, d-24 till d-39; for F:G corrected: total d0-d39, corrected to final body weight of 3050 g
From the text: The experimental design consisted of one control group (T1) and two other groups receiving the control diet supplemented with increasing levels of DMS (dimethyl sulfone), specifically 0.1% DMS (T2) and 0.2% DMS (T3). Treatments were replicated in 12 pens each in a completely randomized block design. Block refers to physical allocation in the experimental facility. All the animal trial was realized in compliance with the Ethics Committee of Faculty of Veterinary Medicine (Ghent University, EC2018-71).
The experiment was conducted at the experimental facilities of the Department of Animal Sciences and Aquatic Ecology of Ghent University, located in Melle, Belgium. A total of 792 male broiler chickens (Ross 308, Aviagen Group) were provided by Vervaeke-Belavi hatchery (Tielt, Belgium). Larger treatment effects are expected with males, as they are more sensitive to heat stress (HS) (Cahaner and Leenstra, 1992). The experiment consisted in three rearing phases: starter (from d-0 to d-10), grower (from d-10 to d-21) and finisher (from d-21 to d-39). The one-day old chicks were weighted and equally spread among the pens according to their body weight (BW). Pens were randomly allocated to the treatment groups. The initial average animal BW was 41.3±0.31 g at the beginning of the experiment. The newly selected chicks were housed in a single climate-controlled room, which contained 36 pens of 22 animals each. […] The room was equipped with liner drinkers (two nipples per pen), and each pen had one tube-type metallic feeder. Temperature in starter and grower phase was set to decrease linearly from 34° C., at d-0 until a basal temperature of 22° C., at d-24. The light of the room was turned on 23 h in period d-0 to d-7, and then turned on at 4:00 and switched off at 22:00 during the rest of the experiment (18L:6D).
The finisher period started at d-21, and the chronic cyclic heat stress (HS) protocol was applied from d-24 until d-39. Starting from d-24, the temperature was increased from 22° C. to 34° C. for 6 hours per day (from 9:00 to 15:00) with relative air humidity (RH) between 52 and 58%. From 8:00 to 9:00, the temperature was increased from 22° C. to 34° C., and from 15:00 to 16:00, the temperature was decreased from 34° C. to 22° C. The rest of the day the temperature was 22° C. The room was equipped with heaters with thermostats, and air circulators to enable the desired temperature and RH to be maintained, providing sufficient ventilation and air conditions. RH was adjusted with manual spraying of water on stable walls, periodically. The temperature and the RH were recorded at 10-min intervals with a dry bulb thermo-hygrometer (Escort RH iLog, Escort Verification Technologies Inc., Buchanan, United States).
Wheat and soybean meal-based feeds were formulated to meet the nutrient requirements of broiler chickens, according to Ross308 recommendations or slightly lower to avoid excessive mortality in the finisher phase. […] The final formulation was approved by the commissioner. The test substance dimethyl sulfone was added on top at 0.1 and 0.2% in T2 and T3 in all rearing phases, respectively. Diets were processed by Research Dietary Services (RDS, Wijk bij Duurstede, The Netherlands) and delivered to Ghent University. All the diets were provided as pellets during all rearing phases. The chickens were fed ad libitum and had free access to water during the whole experiment.
For all performance indices, the pen is the experimental unit. Total feed intake (FI) was recorded for each rearing period. In addition, FI during HS period was recorded every day, weighing the feeders before (at 8:00) and after (at 16:00) HS every day. That allows the calculation of the relative FI during period with HS relative to the total FI for each day during HS (d-24 to d-39). The total body weight (BW) of each pen was recorded at d-0, d-10, d-21 and d-39, and divided by the number of chickens in the pen at that day to have the average BW for each pen. […]

[1] = 0.1% DMS in diet (T2), d-24 to d-39, excluding pen 24
[2] = 0.1% DMS in diet (T2), finisher d21-d39, heat stress d-24 till d-39
[3] = 0.1% DMS in diet (T2), grower d10-d21
[4] = 0.1% DMS in diet (T2), starter d0-d10
[5] = 0.1% DMS in diet (T2), total d0-d39
[6] = 0.2% DMS in diet (T3), d-24 to d-39, excluding pen 24
[7] = 0.2% DMS in diet (T3), finisher d21-d39, heat stress d-24 till d-39
[8] = 0.2% DMS in diet (T3), grower d10-d21
[9] = 0.2% DMS in diet (T3), starter d0-d10
[10] = 0.2% DMS in diet (T3), total d0-d39

## CS(C)(=O)=O [DMS, dimethyl sulfone]
0.1% DMS in diet (T2)
  FIhs (percentage of total feed intake consumed during hours of heat stress): 27.9%
  F:G corrected: 1.54
[1]
  Cases of mortality: 10
  Cases of mortality+culling: 12
0.1% DMS in diet (T2), d-24 to d-39, pen 24 included
  Cases of mortality+culling: 17
[2]
  ADFI: 179 g/day
  ADG: 106 g/day
  F:G: 1.71
  Final BW: 3100 g
  Mortality: 4.7%
  Mortality + culling: 6.0%
[3]
  ADFI: 103 g/day
  ADG: 75.5^a g/d
  ADG higher as compared to control: 2.6%
  F:G: 1.36^b
  F:G reduced as compared to control: 6 points
  Final BW: 1189 g
  Mortality: 1.1%
  Mortality + culling: 1.1%
[4]
  ADFI: 32.5 g/day
  ADG: 31.7 g/day
  F:G: 1.03
  Final BW: 359 g
  Mortality: 0.0%
  Mortality + culling: 0.0%
[5]
  ADFI: 116 g/day
  ADG: 78.4 g/day
  EPEF (European production efficiency factor): 488
  F:G: 1.53
  Mortality: 5.9%
  Mortality + culling: 7.3%
0.2% DMS in diet (T3)
  FIhs (percentage of total feed intake consumed during hours of heat stress): 27.9%
  F:G corrected: 1.54
[6]
  Cases of mortality: 8
  Cases of mortality+culling: 8
0.2% DMS in diet (T3), d-24 to d-39, pen 24 included
  Cases of mortality+culling: 8
[7]
  ADFI: 178 g/day
  ADG: 104 g/day
  F:G: 1.72
  Final BW: 3066 g
  Mortality: 3.1%
  Mortality + culling: 3.1%
[8]
  ADFI: 102 g/day
  ADG: 76.1^a g/d
  ADG higher as compared to control: 3.4%
  F:G: 1.35^b
  F:G reduced as compared to control: 7 points
  Final BW: 1194 g
  Mortality: 0.4%
  Mortality + culling: 0.8%
[9]
  ADFI: 32.3 g/day
  ADG: 31.6 g/day
  F:G: 1.03
  Final BW: 357 g
  Mortality: 0.8%
  Mortality + culling: 0.8%
[10]
  ADFI: 117 g/day
  ADG: 77.6 g/day
  EPEF (European production efficiency factor): 491
  F:G: 1.54
  Mortality: 4.2%
  Mortality + culling: 4.5%
